Results: patent US20060205774A1, “4-(4-(Heterocyclylakoxy) phenyl-1-(heterocyclyl-carbonyl) piperidine derivavites and related compounds as histamine h3 antagonists for the treatment of neurological diseases such as alzheimer's” (priority 2003, published 2006)

What follows are compounds tested against T1, histamine H3 receptor (Homo sapiens, UniProt Q9Y5N1) (assay: Histamine H3 functional antagonist assay (GTPγS SPA on membranes)). Details: membranes of CHO K1 cells expressing human histamine H3; [35S]GTPγS; histamine 0.3 μM.
T1 construct: expressed in transfected cells; host or cells: CHO K1 cells carrying pSwitch, transfected with pGeneH3, mifepristone-induced; clone 3H3; membrane preparation
T1 sequence (Q9Y5N1 whole entry): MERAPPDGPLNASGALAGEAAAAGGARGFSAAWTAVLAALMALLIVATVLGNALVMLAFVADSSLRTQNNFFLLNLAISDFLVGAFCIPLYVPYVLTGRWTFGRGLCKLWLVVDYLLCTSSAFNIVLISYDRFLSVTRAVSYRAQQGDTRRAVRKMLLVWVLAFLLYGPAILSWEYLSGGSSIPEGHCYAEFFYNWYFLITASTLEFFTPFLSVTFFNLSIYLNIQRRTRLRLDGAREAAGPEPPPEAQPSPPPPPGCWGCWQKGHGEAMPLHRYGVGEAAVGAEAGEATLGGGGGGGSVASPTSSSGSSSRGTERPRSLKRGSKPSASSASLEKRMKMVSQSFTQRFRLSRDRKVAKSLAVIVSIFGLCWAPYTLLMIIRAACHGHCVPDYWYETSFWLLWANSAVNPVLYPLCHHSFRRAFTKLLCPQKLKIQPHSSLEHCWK
Type: biochemical
Method: A membrane preparation containing histamine H3 receptors may be prepared in accordance with the following procedures:
Ligated DNA was transformed into competent DH5α E. coli host bacterial cells and plated onto Luria Broth (LB) agar containing Zeocin™ (an antibiotic which allows the selection of cells expressing the sh ble gene which is present on pGene and pSwitch) at 50 μg ml^−1. Colonies containing the re-ligated plasmid were identified by restriction analysis. DNA for transfection into mammalian cells was prepared from 250 ml cultures of the host bacterium containing the pGeneH3 plasmid and isolated using a DNA preparation kit (Qiagen Midi-Prep) as per manufacturers guidelines (Qiagen).
CHO K1 cells previously transfected with the pSwitch regulatory plasmid (InVitrogen) were seeded at 2×10e6 cells per T75 flask in Complete Medium, containing Hams F12 (GIBCOBRL, Life Technologies) medium supplemented with 10% v/v dialysed foetal bovine serum, L-glutamine, and hygromycin (100 μg ml^−1), 24 hours prior to use. Plasmid DNA was transfected into the cells using Lipofectamine plus according to the manufacturers guidelines (InVitrogen). 48 hours post transfection cells were placed into complete medium supplemented with 500 μg ml^−1 Zeocin™.
10-14 days post selection 10 nM Mifepristone (InVitrogen), was added to the culture medium to induce the expression of the receptor. […] Approximately 1×10e7 cells were examined for receptor expression by staining with a rabbit polyclonal antibody, 4a, raised against the N-terminal domain of the histamine H3 receptor, incubated on ice for 60 minutes, followed by two washes in sorting medium. […] Following two further washes with Sorting Medium, cells were filtered through a 50 μm Filcon™ (BD Biosciences) and then analysed on a FACS Vantage SE Flow Cytometer fitted with an Automatic Cell Deposition Unit. […] Positively stained cells were sorted as single cells into 96-well plates, containing Complete Medium containing 500 μg ml^−1 Zeocin™ and allowed to expand before reanalysis for receptor expression via antibody and ligand binding studies. […]

Compound | Kb [nM]
CC(C)N1CCC(Oc2ccc(C3CCN(C(=O)c4ccc(C#N)cc4)CC3)cc2)CC1 [Example E12, 4-{[4-(4-{[1-(1-Methylethyl)-4-piperidinyl]oxy}phenyl)-1-piperidinyl]carbonyl}benzonitrile] | < 1
CC(C)N1CCC(Oc2ccc(C3CCN(C(=O)c4ccc(C#N)nc4)CC3)cc2)CC1 [Example E51, 5-{[4-(4-{[1-(1-Methylethyl)-4-piperidinyl]oxy}phenyl)-1-piperidinyl]carbonyl}-2-pyridinecarbonitrile] | < 1
CC(C)N1CCC(Oc2ccc(C3CCN(C(=O)c4ccc(C(F)(F)F)nc4)CC3)cc2)CC1 [Example E52, 5-{[4-(4-{[1-(1-Methylethyl)-4-piperidinyl]oxy}phenyl)-1-piperidinyl]carbonyl}-2-(trifluoromethyl)pyridine] | < 1
